Experimental data as given in patent US12226409B2, “Treatment of hepatocellular carcinoma” (Eisai R&D Management Co., Ltd., priority 2017, dated 2025).

System: patients with unresectable HCC
Assay: Open-label phase 3 study, safety and side-effect profile (CTCAE v4.0)
Source text: Randomization was stratified according to region (Asia-Pacific or Western regions), macroscopic portal vein invasion and/or extrahepatic spread (yes or no), Eastern Cooperative Oncology Group performance status (0 or 1), and body weight (<60 kg or ≥60 kg).
Safety assessments included recording of vital signs, hematologic and biochemical laboratory testing, urinalysis, and electrocardiography.

COc1cc2nccc(Oc3ccc(NC(=O)NC4CC4)c(Cl)c3)c2cc1C(N)=O [Lenvatinib, 4-(3-chloro-4(cyclopropylaminocarbonyl)aminophenoxy)-7-methoxy-6-quinolinecarboxamide]
TEAE: Decreased appetite (8 mg per day): 33.1% | TEAE: Diarrhea (8 mg per day): 35.1% | TEAE: Hypertension (8 mg per day): 43.0% | TEAE: decreased weight (8 mg per day): 28.5% | Dose reduction/interruption: Abdominal pain (8 mg starting dose): 2 (1.3) n (%) | Dose reduction/interruption: Abdominal pain upper (8 mg starting dose): 2 (1.3) n (%) | Dose reduction/interruption: Alanine aminotransferase increased (8 mg starting dose): 2 (1.3) n (%) | Dose reduction/interruption: Anemia (8 mg starting dose): 2 (1.3) n (%) | Dose reduction/interruption: Ascites (8 mg starting dose): 3 (2.0) n (%) | Dose reduction/interruption: Aspartate aminotransferase increased (8 mg starting dose): 4 (2.6) n (%) | Dose reduction/interruption: Asthenia (8 mg starting dose): 3 (2.0) n (%) | Dose reduction/interruption: Blood and lymphatic system disorders (8 mg starting dose): 5 (3.3) n (%) | Dose reduction/interruption: Blood bilirubin increased (8 mg starting dose): 8 (5.3) n (%) | Dose reduction/interruption: Decreased appetite (8 mg starting dose): 15 (9.9) n (%) | Dose reduction/interruption: Dehydration (8 mg starting dose): 3 (2.0) n (%) | Dose reduction/interruption: Diarrhea (8 mg starting dose): 8 (5.3) n (%) | Dose reduction/interruption: Dyspnea (8 mg starting dose): 2 (1.3) n (%) | Dose reduction/interruption: Edema peripheral (8 mg starting dose): 2 (1.3) n (%) | Dose reduction/interruption: Esophageal varices hemorrhage (8 mg starting dose): 0 (0.0) n (%) | Dose reduction/interruption: Fatigue (8 mg starting dose): 5 (3.3) n (%) | Dose reduction/interruption: Gamma-glutamyltransferase increased (8 mg starting dose): 1 (0.7) n (%) | Dose reduction/interruption: Gastrointestinal disorders (8 mg starting dose): 22 (14.6) n (%) | Dose reduction/interruption: General disorders and administration site conditions (8 mg starting dose): 17 (11.3) n (%) | Dose reduction/interruption: Hepatic encephalopathy (8 mg starting dose): 4 (2.6) n (%) | Dose reduction/interruption: Hepatic function abnormal (8 mg starting dose): 0 (0.0) n (%) | Dose reduction/interruption: Hepatobiliary disorders (8 mg starting dose): 2 (1.3) n (%) | Dose reduction/interruption: Hypertension (8 mg starting dose): 3 (2.0) n (%) | Dose reduction/interruption: Hyponatremia (8 mg starting dose): 2 (1.3) n (%) | Dose reduction/interruption: Investigations (8 mg starting dose): 24 (15.9) n (%) | Dose reduction/interruption: Malaise (8 mg starting dose): 2 (1.3) n (%) | Dose reduction/interruption: Metabolism and nutrition disorders (8 mg starting dose): 21 (13.9) n (%) | Dose reduction/interruption: Musculoskeletal and connective tissue disorders (8 mg starting dose): 4 (2.6) n (%) | Dose reduction/interruption: Myalgia (8 mg starting dose): 1 (0.7) n (%) | Dose reduction/interruption: Nausea (8 mg starting dose): 2 (1.3) n (%) | Dose reduction/interruption: Nervous system disorders (8 mg starting dose): 7 (4.6) n (%) | Dose reduction/interruption: Neutropenia (8 mg starting dose): 0 (0.0) n (%) | Dose reduction/interruption: Neutrophil count decreased (8 mg starting dose): 4 (2.6) n (%) | Dose reduction/interruption: Palmar-plantar erythrodysesthesia syndrome (8 mg starting dose): 4 (2.6) n (%) | Dose reduction/interruption: Platelet count decreased (8 mg starting dose): 9 (6.0) n (%) | Dose reduction/interruption: Proteinuria (8 mg starting dose): 4 (2.6) n (%) | Dose reduction/interruption: Pyrexia (8 mg starting dose): 4 (2.6) n (%) | Dose reduction/interruption: Rash (8 mg starting dose): 0 (0.0) n (%) | Dose reduction/interruption: Rash maculo-papular (8 mg starting dose): 0 (0.0) n (%) | Dose reduction/interruption: Renal and urinary disorders (8 mg starting dose): 5 (3.3) n (%) | Dose reduction/interruption: Respiratory, thoracic and mediastinal disorders (8 mg starting dose): 4 (2.6) n (%) | Dose reduction/interruption: Skin and subcutaneous tissue disorders (8 mg starting dose): 5 (3.3) n (%) | Dose reduction/interruption: Stomatitis (8 mg starting dose): 2 (1.3) n (%) | Dose reduction/interruption: Thrombocytopenia (8 mg starting dose): 2 (1.3) n (%) | Dose reduction/interruption: Vascular disorders (8 mg starting dose): 3 (2.0) n (%) | Dose reduction/interruption: Vomiting (8 mg starting dose): 1 (0.7) n (%) | Dose reduction/interruption: Weight decreased (8 mg starting dose): 3 (2.0) n (%) | Dose reduction/interruption: White blood cell count decreased (8 mg starting dose): 3 (2.0) n (%) | Subjects with Any TEAEs (8 mg starting dose): 151 (100.0) n (%) | Subjects with any TEAEs leading to Dose Reduction or Interruption (8 mg starting dose): 81 (53.6) n (%) | TEAE: Abdominal pain (8 mg starting dose): 19 (12.6) n (%) | TEAE: Abdominal pain upper (8 mg starting dose): 21 (13.9) n (%) | TEAE: Alanine aminotransferase increased (8 mg starting dose): 17 (11.3) n (%) | TEAE: Alopecia (8 mg starting dose): 5 (3.3) n (%) | TEAE: Ascites (8 mg starting dose): 21 (13.9) n (%) | TEAE: Aspartate aminotransferase increased (8 mg starting dose): 21 (13.9) n (%) | TEAE: Asthenia (8 mg starting dose): 14 (9.3) n (%) | TEAE: Back pain (8 mg starting dose): 11 (7.3) n (%) | TEAE: Blood bilirubin increased (8 mg starting dose): 23 (15.2) n (%) | TEAE: Constipation (8 mg starting dose): 19 (12.6) n (%) | TEAE: Decreased appetite (8 mg starting dose): 50 (33.1) n (%) | TEAE: Diarrhea (8 mg starting dose): 53 (35.1) n (%) | TEAE: Dysphonia (8 mg starting dose): 28 (18.5) n (%) | TEAE: Edema peripheral (8 mg starting dose): 23 (15.2) n (%) | TEAE: Fatigue (8 mg starting dose): 42 (27.8) n (%) | TEAE: Hypertension (8 mg starting dose): 65 (43.0) n (%) | TEAE: Hypothyroidism (8 mg starting dose): 25 (16.6) n (%) | TEAE: Nausea (8 mg starting dose): 24 (15.9) n (%) | TEAE: Palmar-plantar erythrodysesthesia syndrome (8 mg starting dose): 35 (23.2) n (%) | TEAE: Platelet count decreased (8 mg starting dose): 26 (17.2) n (%) | TEAE: Proteinuria (8 mg starting dose): 37 (24.5) n (%) | TEAE: Pyrexia (8 mg starting dose): 24 (15.9) n (%) | TEAE: Rash (8 mg starting dose): 18 (11.9) n (%) | TEAE: Stomatitis (8 mg starting dose): 11 (7.3) n (%) | TEAE: Vomiting (8 mg starting dose): 22 (14.6) n (%) | TEAE: Weight decreased (8 mg starting dose): 43 (28.5) n (%) | TEAE: Decreased appetite (12 mg per day): 34.5% | TEAE: Diarrhea (12 mg per day): 40.3% | TEAE: Hypertension (12 mg per day): 41.8% | TEAE: decreased weight (12 mg per day): 32.0% | Dose reduction/interruption: Abdominal pain (12 mg starting dose): 4 (1.2) n (%) | Dose reduction/interruption: Abdominal pain upper (12 mg starting dose): 3 (0.9) n (%) | Dose reduction/interruption: Alanine aminotransferase increased (12 mg starting dose): 4 (1.2) n (%) | Dose reduction/interruption: Anemia (12 mg starting dose): 1 (0.3) n (%) | Dose reduction/interruption: Ascites (12 mg starting dose): 7 (2.2) n (%) | Dose reduction/interruption: Aspartate aminotransferase increased (12 mg starting dose): 5 (1.5) n (%) | Dose reduction/interruption: Asthenia (12 mg starting dose): 13 (4.0) n (%) | Dose reduction/interruption: Blood and lymphatic system disorders (12 mg starting dose): 11 (3.4) n (%) | Dose reduction/interruption: Blood bilirubin increased (12 mg starting dose): 12 (3.7) n (%) | Dose reduction/interruption: Decreased appetite (12 mg starting dose): 21 (6.5) n (%) | Dose reduction/interruption: Dehydration (12 mg starting dose): 3 (0.9) n (%) | Dose reduction/interruption: Diarrhea (12 mg starting dose): 28 (8.6) n (%) | Dose reduction/interruption: Dyspnea (12 mg starting dose): 6 (1.8) n (%) | Dose reduction/interruption: Edema peripheral (12 mg starting dose): 4 (1.2) n (%) | Dose reduction/interruption: Esophageal varices hemorrhage (12 mg starting dose): 5 (1.5) n (%) | Dose reduction/interruption: Fatigue (12 mg starting dose): 22 (6.8) n (%) | Dose reduction/interruption: Gamma-glutamyltransferase increased (12 mg starting dose): 6 (1.8) n (%) | Dose reduction/interruption: Gastrointestinal disorders (12 mg starting dose): 65 (20.0) n (%) | Dose reduction/interruption: General disorders and administration site conditions (12 mg starting dose): 50 (15.4) n (%) | Dose reduction/interruption: Hepatic encephalopathy (12 mg starting dose): 16 (4.9) n (%) | Dose reduction/interruption: Hepatic function abnormal (12 mg starting dose): 2 (0.6) n (%) | Dose reduction/interruption: Hepatobiliary disorders (12 mg starting dose): 25 (7.7) n (%) | Dose reduction/interruption: Hypertension (12 mg starting dose): 26 (8.0) n (%) | Dose reduction/interruption: Hyponatremia (12 mg starting dose): 3 (0.9) n (%) | Dose reduction/interruption: Investigations (12 mg starting dose): 57 (17.5) n (%) | Dose reduction/interruption: Malaise (12 mg starting dose): 3 (0.9) n (%) | Dose reduction/interruption: Metabolism and nutrition disorders (12 mg starting dose): 31 (9.5) n (%) | Dose reduction/interruption: Musculoskeletal and connective tissue disorders (12 mg starting dose): 14 (4.3) n (%) | Dose reduction/interruption: Myalgia (12 mg starting dose): 4 (1.2) n (%) | Dose reduction/interruption: Nausea (12 mg starting dose): 14 (4.3) n (%) | Dose reduction/interruption: Nervous system disorders (12 mg starting dose): 28 (8.6) n (%) | Dose reduction/interruption: Neutropenia (12 mg starting dose): 6 (1.8) n (%) | Dose reduction/interruption: Neutrophil count decreased (12 mg starting dose): 7 (2.2) n (%) | Dose reduction/interruption: Palmar-plantar erythrodysesthesia syndrome (12 mg starting dose): 21 (6.5) n (%) | Dose reduction/interruption: Platelet count decreased (12 mg starting dose): 13 (4.0) n (%) | Dose reduction/interruption: Proteinuria (12 mg starting dose): 29 (8.9) n (%) | Dose reduction/interruption: Pyrexia (12 mg starting dose): 8 (2.5) n (%) | Dose reduction/interruption: Rash (12 mg starting dose): 2 (0.6) n (%) | Dose reduction/interruption: Rash maculo-papular (12 mg starting dose): 0 (0.0) n (%) | Dose reduction/interruption: Renal and urinary disorders (12 mg starting dose): 35 (10.8) n (%) | Dose reduction/interruption: Respiratory, thoracic and mediastinal disorders (12 mg starting dose): 12 (3.7) n (%) | Dose reduction/interruption: Skin and subcutaneous tissue disorders (12 mg starting dose): 23 (7.1) n (%) | Dose reduction/interruption: Stomatitis (12 mg starting dose): 4 (1.2) n (%) | Dose reduction/interruption: Thrombocytopenia (12 mg starting dose): 4 (1.2) n (%) | Dose reduction/interruption: Vascular disorders (12 mg starting dose): 30 (9.2) n (%) | Dose reduction/interruption: Vomiting (12 mg starting dose): 11 (3.4) n (%) | Dose reduction/interruption: Weight decreased (12 mg starting dose): 17 (5.2) n (%) | Dose reduction/interruption: White blood cell count decreased (12 mg starting dose): 3 (0.9) n (%) | Subjects with Any TEAEs (12 mg starting dose): 319 (98.2) n (%) | Subjects with any TEAEs leading to Dose Reduction or Interruption (12 mg starting dose): 213 (65.5) n (%) | TEAE: Abdominal pain (12 mg starting dose): 62 (19.1) n (%) | TEAE: Abdominal pain upper (12 mg starting dose): 37 (11.4) n (%) | TEAE: Alanine aminotransferase increased (12 mg starting dose): 36 (11.1) n (%)
